Measured values published in patent US10363229B2, “Methods and compositions for the treatment of cancer” (priority 2009, dated 2019).

Experiments:
[1] = 20° C.; cited from earlier work
[2] = tested on: actin filaments in melanoma cells; test: Immunofluorescence of actin filaments; assay type: cell-based, mouse; details: 2% methyl sulfone, 72 hours
Description: Cells were plated onto 10-well slides ( ) that were pre-treated with sulfuric acid. After 24 hours, medium was removed and 2% methyl sulfone in medium was added to half the slides; control cells received medium alone. At 72 and 144 hours, cells were washed in 37° C. PBS, pH 7.4, and fixed in 3.7% formaldehyde in PBS for 10 minutes. PBS was used to wash cells three times followed by a wash in 0.1% Triton X-100/PBS for 5 minutes. Cells were again washed three times in PBS, then in 1% BSA/PBS for 20 minutes. Cells were incubated with Rhodamine-labeled Phalloidin (Molecular Probes, Eugene, Oreg.; diluted 1/40 in 1% BSA/PBS) for 20 minutes. After washing three times in PBS, SlowFade was added to each well. Glass coverslips were placed over each slide and sealed with nail polish. Images were visualized using 568-nm excitation on a Perkin Elmer Ultraview RS5 spinning-disk confocal scanning system mounted on a Nikon TE2000 inverted microscope with a 100×1.4 NA Plan Apo oil immersion objective. (William A. Mohler, Ph.D., Director, Spinning Disk Microscope Facility, University of Connecticut Health Center).

[3] = tested on: normal lymphocytes (T-cells) from a healthy volunteer; test: Apoptosis of normal T-cell lymphocytes by Flow Cytometry; assay type: cell-based, human
Description: Normal T-cell lymphocytes were obtained from a blood sample of a healthy volunteer. Blood samples were obtained with IRB approval and with the volunteer signing an Informed Consent Form. White blood cells were separated from red blood cells using a Ficoll gradient. Flow cytometry with antibodies against CD3 and CD4 was used to identify T-cell lymphocytes (Flow Cytometry Facility, University of Connecticut Health Center, Farmington, Conn.).
Blood was drawn from healthy volunteers and white blood cells (e.g., lymphocytes, neutrophils) were enriched using Ficoll-Plaque. Cells were incubated in Petri dishes containing MEM with 7% fetal calf serum in a CO2 (5%) incubator at 37° C.; Methyl sulfone was present at concentrations of 0, 3, 6, or 10%. After 20 hours, cells were incubated with antibodies specific to T-lymphocytes (CD3 and CD4 T-cells), B-lymphocytes (B-cells) and neutrophils, and the percent of apoptotic cells was determined by Flow Cytometry. This is a technique that identifies specific cell types (e.g., CD3 T-cells, CD4 T-cells, B-cells, neutrophils) within a mixed population of blood cells, and then determines whether the cells are alive or apoptotic.
After 20 hours, cells were incubated with fluorescent antibodies to identify T-cells, B-cells and neutrophils, and then processed by Flow Cytometry (FIG. 15).

melanoma cells = test: Cell proliferation, BrdU incorporation into DNA; assay type: cell-based, mouse; details: 2% methyl sulfone
Description: Cells were plated onto sterile 12 mm coverslips in 35 mm tissue culture plates and incubated at 37° C., 5% CO2. After 24 hours, 2% methyl sulfone in medium or medium alone was added the plates and incubated at 37° C., 5% CO2 for 48 and 72 hrs. BrdU (Molecular Probes, Eugene, Oreg., USA; diluted ⅓ in RPMI medium) was added to each plate for 60 minutes at 37° C., 5% CO2. Coverslips were transferred to porcelain holders, washed with PBS, fixed in methanol/acetone (1:1), washed with PBS, and incubated in 5% BSA/PBS for 30 minutes at room temperature. To denature DNA, coverslips were placed in 0.1N HCL/1% Triton X-100 for 10 minutes at room temperature. After washing in PBS, cells were incubated with Alexa Fluor 488 anti-BrdU antibody (Molecular Probes, Eugene, Oreg.; diluted 1/20 in 5% BSA/PBS) for 60 minutes at room temperature. Cells were washed in PBS and incubated with Hoechst (diluted 1/1000 in PBS) in the dark at room temperature. After washing in PBS, cells were dipped in dH2O and drained onto Kim Wipes. SlowFade mounting medium (Molecular Probes, Eugene, Oreg.) was added to a glass slide and coverslips were placed face down onto slides and sealed with clear nail polish. […]

methyl sulfone
approximate water solubility [1]: ~150 mg/mL
distribution of actin filaments [2]: clearly visible at the cell surface in small protrusions that contacted neighboring cells
viability of normal lymphocytes (T-cells) ([3]; 10% methyl sulfone, 20 hours): remained viable
T-cells from the healthy volunteer induced into apoptosis ([3]; summary in the description, concentration not given): less than 10%
cells synthesizing DNA (BrdU incorporation) (melanoma cells; 48 hours (control 14%)): 0.03%
cells synthesizing DNA (BrdU incorporation) (melanoma cells; 72 hours (control 21%)): 0%
